Results taken from ChEMBL document CHEMBL4138264, “Seco-Dendrobine-Type Alkaloids and Bioactive Phenolics from Dendrobium findlayanum” (J Nat Prod, 2018).
Calls of active or inactive are those of the source. No cut-off for these calls is given here. Peptide text beside a SMILES is read from it. * marks the point of attachment. Cbz = O=C(OCc1ccccc1)*

Key:
MCF7 = assay: Cytotoxicity against human MCF7 cells assessed as reduction in cell viability after 48 hrs by MTS assay; type: functional, cell-based; conditions: MCF7, 48 h
SMMC-7721 = assay: Cytotoxicity against human SMMC7721 cells assessed as reduction in cell viability after 48 hrs by MTS assay; type: functional, cell-based; conditions: SMMC-7721, 48 h
RAW264.7 [1] = assay: Antiinflammatory activity in mouse RAW264.7 cells assessed as reduction in LPS-induced NO production at 25 uM preincubated for 1 hr followed by LPS stimulation measured after 18 hrs by Griess assay; type: functional, cell-based
HL-60 = assay: Cytotoxicity against human HL60 cells assessed as reduction in cell viability after 48 hrs by MTS assay; type: functional, cell-based; conditions: HL-60, 48 h
A549 = assay: Cytotoxicity against human A549 cells assessed as reduction in cell viability after 48 hrs by MTS assay; type: functional, cell-based; conditions: A549, 48 h
SW480 = assay: Cytotoxicity against human SW480 cells assessed as reduction in cell viability after 48 hrs by MTS assay; type: functional, cell-based; conditions: SW480, 48 h
RAW264.7 [2] = assay: Inhibition of LPS-stimulated ROS production in mouse RAW264.7 cells at 25 ug/ml preincubated for 1 hr followed by LPS stimulation measured after 18 hrs by DCFH-DA probe based flow cytometry; type: functional, cell-based
[3] = Antioxidant activity assessed as DPPH radical scavenging activity at 50 uM after 1 hr; type: functional
RAW264.7 [4] = assay: Antiinflammatory activity in mouse RAW264.7 cells assessed as reduction in LPS-induced NO production at 25 ug/ml preincubated for 1 hr followed by LPS stimulation measured after 18 hrs by DAF-FMDA probe based flow cytometry; type: functional, cell-based
RAW264.7 [5] = assay: Antiinflammatory activity in mouse RAW264.7 cells assessed as reduction in LPS-induced NO production preincubated for 1 hr followed by LPS stimulation measured after 18 hrs by Griess assay; type: functional, cell-based
[6] = Antioxidant activity assessed as DPPH radical scavenging activity at 25 ug/ml after 1 hr; type: functional

**Q.** Which IC50 (MCF7) does the source give for CC(C)C1=C(O)C(=O)[C@@]2(C)[C@@H]3CC[C@H]2[C@H]1C(=O)NC3 here?
**A.** > 40 µM

**Q.** What about the IC50 (SMMC-7721) of the same molecule?
**A.** > 40 µM

**Q.** And the Activity (RAW264.7 [1])?
**A.** inactive

**Q.** What about the IC50 (HL-60) of the same molecule?
**A.** > 40 µM

**Q.** What about the IC50 (A549) of the same molecule?
**A.** > 40 µM

**Q.** What about the IC50 (SW480) of the same molecule?
**A.** > 40 µM

**Q.** With CC(C)[C@@H]1[C@@H]([C@@H]2CC[C@@H]3CN(C)C(=O)[C@@]32C)C(=O)O[C@H]1O as the molecule, how does the IC50 (MCF7) read?
**A.** > 40 µM

**Q.** And the IC50 (SMMC-7721)?
**A.** > 40 µM

**Q.** And the Activity (RAW264.7 [1])?
**A.** inactive

**Q.** What about the IC50 (HL-60) of the same molecule?
**A.** > 40 µM

**Q.** And the IC50 (A549)?
**A.** > 40 µM

**Q.** And the IC50 (SW480)?
**A.** > 40 µM

**Q.** Which IC50 (MCF7) does the source give for CC(C)[C@@H]1[C@H]2OC(=O)[C@@H]1[C@@H]1CC[C@@H]3CN(C)[C@H]2[C@@]31C here?
**A.** > 40 µM

**Q.** What about the IC50 (SMMC-7721) of the same molecule?
**A.** > 40 µM

**Q.** And the Activity (RAW264.7 [1])?
**A.** inactive

**Q.** And the IC50 (HL-60)?
**A.** > 40 µM

**Q.** What about the IC50 (A549) of the same molecule?
**A.** > 40 µM

**Q.** And the IC50 (SW480)?
**A.** > 40 µM

**Q.** Which IC50 (MCF7) does the source give for CC(=O)O[C@H]1C(=O)[C@@]2(C)[C@H]([C@H](OC(=O)c3ccccc3)[C@]3(O)C[C@H](OC(=O)[C@H](O)[C@@H](NC(=O)c4ccccc4)c4ccccc4)C(C)=C1C3(C)C)[C@]1(OC(C)=O)CO[C@@H]1C[C@@H]2O [PACLITAXEL] here?
**A.** < 0.008 µM

**Q.** What about the IC50 (SMMC-7721) of the same molecule?
**A.** < 0.008 µM

**Q.** And the IC50 (HL-60)?
**A.** < 0.008 µM

**Q.** What about the IC50 (A549) of the same molecule?
**A.** < 0.008 µM

**Q.** And the IC50 (SW480)?
**A.** < 0.008 µM

**Q.** What does the source list for COc1cc(CCc2ccc(O)cc2)cc(O)c1-c1c(OC)cc([C@@H]2OO[C@H]2CO)cc1OC?
**A.** inhibition (RAW264.7 [2]): Active; IC50 (MCF7): 19.4 µM; IC50 (SMMC-7721): 34.4 µM; Activity [3]: 37.6%; IC50 (HL-60): 23.5 µM; Activity (RAW264.7 [4]): inactive; IC50 (RAW264.7 [5]): 21.4 µM; IC50 (A549): 20.8 µM; IC50 (SW480): > 40 µM

**Q.** Which results are given for CC(C)[C@H]1[C@@H]2C(=O)O[C@H]1[C@@]1(O)N(C)C[C@H]3CC[C@@H]2[C@]31C?
**A.** IC50 (MCF7): > 40 µM; IC50 (SMMC-7721): > 40 µM; Activity (RAW264.7 [1]): inactive; IC50 (HL-60): > 40 µM; IC50 (A549): > 40 µM; IC50 (SW480): > 40 µM

**Q.** For CC(C)C[C@@H](C=O)NC(=O)[C@H](CC(C)C)NC(=O)[C@H](CC(C)C)NC(=O)OCc1ccccc1 [MG-132] (Cbz-Leu-Leu-Leu-aldehyde), which IC50 (RAW264.7 [5]) is on record?
**A.** 0.2 µM

**Q.** Which Activity [6] does the source give for Cc1c(C)c2c(c(C)c1O)CCC(C)(C(=O)O)O2 (stereo unspecified) here?
**A.** 95.5%

**Q.** With COc1ccc(CCc2cc(OC)c(O[C@H](CO)[C@@H](O)c3ccc(O)c(OC)c3)c(OC)c2)cc1 as the molecule, how does the inhibition (RAW264.7 [2]) read?
**A.** Active

**Q.** What about the IC50 (MCF7) of the same molecule?
**A.** > 40 µM

**Q.** What about the IC50 (SMMC-7721) of the same molecule?
**A.** > 40 µM

**Q.** What about the Activity (RAW264.7 [1]) of the same molecule?
**A.** inactive

**Q.** What about the Activity [3] of the same molecule?
**A.** 27.6%

**Q.** And the IC50 (HL-60)?
**A.** > 40 µM

**Q.** What about the IC50 (A549) of the same molecule?
**A.** > 40 µM

**Q.** And the IC50 (SW480)?
**A.** > 40 µM

**Q.** With COc1ccc(CCc2cc(OC)c3c(c2)O[C@@H](c2ccc(O)c(OC)c2)[C@H](CO)O3)cc1 as the molecule, how does the inhibition (RAW264.7 [2]) read?
**A.** inactive

**Q.** What about the IC50 (MCF7) of the same molecule?
**A.** > 40 µM

**Q.** What about the IC50 (SMMC-7721) of the same molecule?
**A.** > 40 µM

**Q.** What about the Activity (RAW264.7 [1]) of the same molecule?
**A.** inactive

**Q.** And the Activity [3]?
**A.** 9.56%

**Q.** What about the IC50 (HL-60) of the same molecule?
**A.** > 40 µM

**Q.** What about the IC50 (A549) of the same molecule?
**A.** > 40 µM

**Q.** What about the IC50 (SW480) of the same molecule?
**A.** > 40 µM

**Q.** Which IC50 (MCF7) does the source give for CC(C)C1=C(O)C(=O)[C@@]2(C)[C@@H]3CC[C@H]2[C@H]1C(=O)N(C)C3 here?
**A.** > 40 µM

**Q.** What about the IC50 (SMMC-7721) of the same molecule?
**A.** > 40 µM

**Q.** What about the Activity (RAW264.7 [1]) of the same molecule?
**A.** inactive

**Q.** What about the IC50 (HL-60) of the same molecule?
**A.** > 40 µM

**Q.** What about the IC50 (A549) of the same molecule?
**A.** > 40 µM

**Q.** And the IC50 (SW480)?
**A.** > 40 µM

**Q.** Which inhibition (RAW264.7 [2]) does the source give for COc1ccc(CCc2cc(O)c(-c3c(OC)cc([C@@H]4OO[C@H]4CO)cc3OC)c(OC)c2)cc1 here?
**A.** Active

**Q.** What about the IC50 (MCF7) of the same molecule?
**A.** 4.7 µM

**Q.** What about the IC50 (SMMC-7721) of the same molecule?
**A.** 5.1 µM

**Q.** And the Activity (RAW264.7 [1])?
**A.** inactive

**Q.** What about the Activity [3] of the same molecule?
**A.** 18.1%

**Q.** What about the IC50 (HL-60) of the same molecule?
**A.** 2.3 µM

**Q.** And the IC50 (A549)?
**A.** 4.4 µM

**Q.** And the IC50 (SW480)?
**A.** 5.3 µM

**Q.** Which IC50 (MCF7) does the source give for COC(=O)/C(=C(/C(=O)O)C(C)C)[C@@H]1CC[C@@H]2CN(C)C(=O)[C@@]21C here?
**A.** > 40 µM

**Q.** What about the IC50 (SMMC-7721) of the same molecule?
**A.** > 40 µM

**Q.** What about the Activity (RAW264.7 [1]) of the same molecule?
**A.** inactive

**Q.** What about the IC50 (HL-60) of the same molecule?
**A.** > 40 µM

**Q.** And the IC50 (A549)?
**A.** > 40 µM

**Q.** What about the IC50 (SW480) of the same molecule?
**A.** > 40 µM
